The text below walks through data of patent US5502060A, “HIV protease inhibitors” (Merck & Co., Inc., priority 1994, dated 1996).

What is called IC50 is the concentration that inhibits the measured activity by half. The low end stands for higher potency, the high end for lower potency.

The structures appear in SMILES notation.

The target of the assay is HIV protease (Human immunodeficiency virus type 1 group M subtype B, UniProt P03366). Kind of assay: biochemical. Conditions: protease expressed in Escherichia coli; peptide substrate Val-Ser-Gln-Asn-(betanapthyl)Ala-Pro-Ile-Val; 50 mM Na acetate, pH 5.5, 30° C., 1 hour; HPLC. As to the method: Assay for Inhibition of Microbial Expressed Viral Protease
Inhibition studies of the reaction of the protease expressed in Escherichia coli with a peptide substrate Val-Ser-Gln-Asn-(betanapthyl)Ala-Pro-Ile-Val, 0.5 mg/mL at the time the reaction is initiated! were in 50 mM Na acetate, pH 5.5, at 30° C. for 1 hour. Various concentrations of inhibitor in 1.0 ul DMSO were added to 25 ul of the peptide solution in water. The reaction is initiated by the addition of 15 ul of 0.33 nM protease (0.11 ng) in a solution of 0.133 M Na acetate pH 5.5 and 0.26% bovine serum albumin. The reaction was quenched with 160 ul of 5% phosphoric acid. Products of the reaction were separated by HPLC (VYDAC wide pore 5 cm C-18reverse phase, acetonitrile gradient, 0.1% phosphoric acid). The extent of inhibition of the reaction was determined from the peak heights of the products.
As to `CC(C)(C)NC(=O)[C@@H]1C[C@@H]2CCCC[C@@H]2CN1C[C@@H](O)[C@H](Cc1ccccc1)NC(=O)O[C@H]1CCOC1` [Compound A, cis-N-tert-butyl-decahydro-2 2(R)hydroxy-4-phenyl-3(S)-3(S)-tetrahydrofuranyloxycarbonylamino !-butyl!-(4aS, 8aS )-isoquinoline-3(S)carboxamide], the IC50 is approximately 260 nM. The result for `CC(C)(C)NC(=O)[C@@H]1C[C@@H]2CCCC[C@@H]2CN1C[C@@H](O)[C@H](Cc1ccccc1)NC(=O)O[C@H]1CCS(=O)(=O)C1` [B, Cis-N-tert-butyl-decahydro-2 2(R)-hydroxy-4-phenyl-3(S)-3(S)-1,1-dioxotetr ahydrothien-3-yloxycarbonylamino !-butyl!-(4aS, 8aS )-isoquinoline-3(S)-carboxamide hydrate] reads approximately 59 nM; that for `CC(C)[C@@H]1[C@H](OC(=O)N[C@@H](Cc2ccccc2)[C@H](O)CN2C[C@H]3CCCC[C@H]3C[C@H]2C(=O)NC(C)(C)C)CCS1(=O)=O` [Compound C, N-tert-butyl-decahydro-2 2(R)-hydroxy-4-phenyl-3(S)-1,1-dioxo-2(R)-methylethyl-3(R)-tetrahydrothienyloxycarbonylamino!butyl!-(4aS, 8aS) isoquinoline-3(S)-carboxamide], approximately 4 nM.
